Biological target: T1, human leukocytic elastase (HLE) (Homo sapiens, UniProt P08246)
T1 sequence (P08246 30-267): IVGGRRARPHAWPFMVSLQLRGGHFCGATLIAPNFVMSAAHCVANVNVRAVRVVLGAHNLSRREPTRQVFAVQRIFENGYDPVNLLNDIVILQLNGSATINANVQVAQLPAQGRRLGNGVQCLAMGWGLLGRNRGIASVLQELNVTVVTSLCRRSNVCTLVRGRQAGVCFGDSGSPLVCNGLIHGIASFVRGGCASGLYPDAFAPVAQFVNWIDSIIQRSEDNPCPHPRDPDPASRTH
Experiment: Inhibition of human leukocytic elastase, kinetics of p-nitroaniline release at 410 nm
Format: biochemical
Settings: read-out: percentage of inhibition of the anti-elastase activity after 10 min
Experimental: A test to ascertain the activity of a polar lipid mixture in accordance with the invention on the inhibition of a specific enzyme, human leukocytic elastase (HLE), was carried out at the Connective Tissue Laboratory of the CNRS at Cretail (France). HLE is able to destroy elastin and therefore cause cell aging. HLE also detrimentally effects the arterial walls.
The activity of the mixture in accordance with the invention was compared with that of oleic acid, the reference substance.
This test measures the inhibition of the enzymatic activity by different preparations tested by following the kinetics at 410 nm of the degradation of a substrate, S, corresponding essentially to elastin: Me-O-Suc-Ala2 -Pro-Val-pNa(N-Methoxy-succinyl-Ala-Ala-Pro-Val-p-Nitroanilide). In this test, changes in the concentration of p-Nitroaniline, released due to the effect of the activity of HLE on the substrate, S, is measured over time.
In order to carry out these tests:
either 0.1M Tris-Cl+0.01% Triton X-100 at pH 8
was used as the reaction buffer, B. […]
Spectrophotometer readings were taken at 410 nm relative to the p-Nitroaniline concentration and the results obtained were then transferred to Curves 1 to 5, which correspond to the cell samples of the same numbering. […]
On each of these curves, the time in min was recorded on the abscissa and the optical deviation, OD, read at 410 nm, was recorded on the ordinate. […]

CCCCCCCC/C=C\CCCCCCCC(=O)O [Reference oleic acid, oleic acid]
inhibition at 0.1 µg/mL (oleic acid at 0.1 μg/ml): 36% | inhibition at 1 µg/mL (oleic acid at 1.0 μg/ml): 84%

Reference: US5817646A, “Polar lipid composition of plant origin” (Laboratoires Inocosm, priority 1991, dated 1998)
